The source of these data is patent US11053251B2, “GPR35 modulators” (Prometheus Biosciences, Inc., priority 2019, dated 2021).

For experiment [1], the target named is Human GPR35 (Homo sapiens, UniProt Q9HC97). Description: Beta-Arrestin Assay (Tango U2OS cells, LiveBLAzer-FRET B/G). The format is cell-based. The conditions noted are these: Human GPR35 expressing Tango U2OS cells, 5 hours treatment. The method, boiled down: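 Tango U2OS cells expressing GPR35 were plated at 10,000 cells/well overnight, then treated with serially diluted compounds for 5 h. Beta-arrestin recruitment was read by LiveBLAzer-FRET B/G after a 2 h substrate incubation, with zaprinast as positive control. EC50 came from a four-parameter dose-response fit.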
Human GPR35 (Homo sapiens, UniProt Q9HC97), sequence (Q9HC97 whole entry): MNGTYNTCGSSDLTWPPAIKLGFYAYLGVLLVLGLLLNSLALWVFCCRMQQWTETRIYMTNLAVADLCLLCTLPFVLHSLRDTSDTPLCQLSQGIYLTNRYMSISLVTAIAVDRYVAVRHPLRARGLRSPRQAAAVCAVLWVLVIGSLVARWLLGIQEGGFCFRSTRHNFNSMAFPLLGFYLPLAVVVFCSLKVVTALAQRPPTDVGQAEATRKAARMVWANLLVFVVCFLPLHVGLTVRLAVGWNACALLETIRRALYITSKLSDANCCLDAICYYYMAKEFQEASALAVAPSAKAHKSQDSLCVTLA

The target in experiment [2] is Human GPR35 (Homo sapiens, UniProt Q9HC97, S294R). Description: Alternative Beta-Arrestin Assay (JumpIn 294R Tango U2OS cells, LiveBLAzer-FRET B/G). Type of experiment: cell-based. As to conditions: for EC50: Human GPR35 expressing JumpIn 294R Tango U2OS cells, 5 hours treatment. The method, boiled down: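 U2OS Tango cells expressing human GPR35 S294R, plated overnight, exposed to serially diluted compounds for 5 hours. β-lactamase reporter read with LiveBLAzer-FRET B/G (CCF4-AM) after 2 h; EC50 from four-parameter fit, zaprinast as positive control.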
Human GPR35 (Homo sapiens, UniProt Q9HC97, S294R), sequence (Q9HC97 whole entry S294R): as the sequence (Q9HC97 whole entry) above, with S294R counted along it

Usually EC50 stands for the concentration at which the effect is half-maximal. A higher EC50 goes with lower potency in that assay. For `CCOc1cc(C(=O)N2CC[C@@H](C(=O)O)C2)ccc1-c1nc2[nH]nnc2c(=O)[nH]1` [Compound 161, (R)-1-(3-ethoxy-4-(7-oxo-6,7-dihydro-3H-[1,2,3]triazolo[4,5-d]pyrimidin-5-yl)benzoyl)pyrrolidine-3-carboxylic acid], the concentration for a half-maximal effect (EC50) on Human GPR35 [1] and on Human GPR35 [2] was no more than 10 µM each time.

As for `CCOc1cc(-c2ccc(C(=O)O)nc2)ccc1-c1nc2[nH]nnc2c(=O)[nH]1` [Compound 125, 5-(3-Ethoxy-4-(7-oxo-6,7-dihydro-3H-[1,2,3]triazolo[4,5-d]pyrimidin-5-yl)phenyl)picolinic acid], the EC50 at Human GPR35 [1] and on Human GPR35 [2] was no more than 10 µM each time.

As to `CCOc1cc(-c2ccc(Cl)c(C(=O)O)c2)ccc1-c1nc2[nH]nnc2c(=O)[nH]1` [Compound 180, 4-chloro-3′-ethoxy-4′-(7-oxo-6,7-dihydro-3H-[1,2,3]triazolo[4,5-d]pyrimidin-5-yl)-[1,1′-biphenyl]-3-carboxylic acid], the half-maximal effective concentration (EC50) on Human GPR35 [1] and on Human GPR35 [2] was no more than 10 µM in each case.

On to `CCOc1cc(NCC(=O)O)ccc1-c1nc2[nH]nnc2c(=O)[nH]1` [Compound 170, (3-ethoxy-4-(7-oxo-6,7-dihydro-3H-[1,2,3]triazolo[4,5-d]pyrimidin-5-yl)phenyl)glycine], for which the concentration giving a half-maximal response (EC50) on Human GPR35 [1] and at Human GPR35 [2] was no more than 10 µM each time.

`CCOc1cc(C(=O)N(C)c2ccccc2)ccc1-c1nc2[nH]nnc2c(=O)[nH]1` [Compound 139, 3-ethoxy-N-methyl-4-(7-oxo-6,7-dihydro-3H-[1,2,3]triazolo[4,5-d]pyrimidin-5-yl)-N-phenylbenzamide] gave an EC50 on Human GPR35 [1] greater than 10 µM. Also, the “% inhibition at 50 μM” value at Human GPR35 [2] (at 50 μM, Table 2) was 35% inhibition at.

On to `CCOc1cc(NC(C)=O)ccc1-c1nc2[nH]nnc2c(=O)[nH]1` [Compound 138, N-(3-ethoxy-4-(7-oxo-6,7-dihydro-3H-[1,2,3]triazolo[4,5-d]pyrimidin-5-yl)phenyl)acetamide], for which the EC50 was no more than 10 µM at Human GPR35 [1] and 10 to 50 µM at Human GPR35 [2].

For `CCOc1cc(-c2cccc(C(=O)OC)c2)ccc1-c1nc2[nH]nnc2c(=O)[nH]1` [Compound 107, Methyl 3′-ethoxy-4′-(7-oxo-6,7-dihydro-3H-[1,2,3]triazolo[4,5-d]pyrimidin-5-yl)-[1,1′-biphenyl]-3-carboxylate], the 50% effective concentration (EC50) on Human GPR35 [1] and on Human GPR35 [2] was no more than 10 µM each time.

As for `CCOc1cc(C(=O)N[C@H](CCC(=O)O)C(=O)O)ccc1-c1nc2[nH]nnc2c(=O)[nH]1` [Compound 169, (3-ethoxy-4-(7-oxo-6,7-dihydro-3H-[1,2,3]triazolo[4,5-d]pyrimidin-5-yl)benzoyl)-D-glutamic acid], the EC50 at Human GPR35 [1] and at Human GPR35 [2] was no more than 10 µM in each case.

As to `CCOc1cc(Cc2ccccc2)ccc1-c1nc2[nH]nnc2c(=O)[nH]1` [Compound 174, 5-(4-benzyl-2-ethoxyphenyl)-3,6-dihydro-7H-[1,2,3]triazolo[4,5-d]pyrimidin-7-one], the 50% effective concentration (EC50) at Human GPR35 [1] and at Human GPR35 [2] was no more than 10 µM in each case.

Consider `CCOc1cc(C(=O)N2CCCC2)ccc1-c1nc2[nH]nnc2c(=O)[nH]1` [Compound 133, 5-(2-Ethoxy-4-(pyrrolidine-1-carbonyl)phenyl)-3,6-dihydro-7H-[1,2,3]triazolo[4,5-d]pyrimidin-7-one], for which the EC50 was no more than 10 µM at Human GPR35 [1] and 10 to 50 µM at Human GPR35 [2].
